Measured values: patent US8569241B2, “Composition for improving brain function and method for improving brain function” (Calpis Co., Ltd., priority 2009, dated 2013)

Legend:
Type in all cases: in vivo
[1] = tested on: scopolamine-induced amnesia; experiment: Y-shaped maze test, spontaneous alternation behavior, scopolamine-induced amnesia; conditions: once orally 60 min before test, ddY mice
Method: Male mice (n=15 to 75) of the ddY strain (approximately 7-week old) were used, and they received food and water ad lib. Test substances used were 0.05 nmol/kg weight (0.1 μg/kg weight), 0.5 nmol/kg weight (1 μg/kg weight), 1.5 nmol/kg weight (3 μg/kg weight), 5 nmol/kg weight (10 μg/kg weight), 50 nmol/kg weight (100 μg/kg weight), and 500 nmol/kg weight (1000 μg/kg weight) of Asn-Ile-Pro-Pro-Leu-Thr-Gln-Thr-Pro-Val-Val-Val-Pro-Pro-Phe-Leu-Gln-Pro-Glu. The test substances were administered to the mice once orally 60 minutes before the execution of a Y-shaped maze test for evaluation of spontaneous alternation behavior. Further, 30 minutes before the execution of the Y-shaped maze test, 1 mg/kg weight of scopolamine was subcutaneously administered on the backs of the mice in order to induce brain dysfunction (dysmnesia and/or cognitive impairment) in the mice. In the Y-shaped maze test, a Y-shaped maze was used as an experimental device, in which the length of each arm was 40 cm, the height of the wall was 12 cm, the width of the floor was 3 cm, and the width of the upper part was 10 cm, and three arms were connected to each other at an angle of 120 degrees. Each of the mice was placed at the tip of any one of the arms of the Y-shaped maze, and then let go to freely explore in the maze for 8 minutes. The sequence of the arms each of the mice entered was recorded. The number of entries by each of the mice for each of the arms during the measurement time was counted to be the total number of entries. In the sequence, the combination in which three different arms were selected in succession (for example, with the three arms respectively called A, B, and C, if the sequence of the arms entered is ABCBACACB, the count is 4 inclusive of overlapping) was investigated, and the number of the count was used as the number of spontaneous alternation behavior. The percentage of spontaneous alternation behavior was calculated by dividing the number of spontaneous alternation behavior by a number obtained by subtracting 2 from the total number of entries, and multiplying a resultant number by 100. The percentage of spontaneous alternation behavior was used as an indicator. […] The measured values were expressed in the form of mean±standard error for each group. A significant difference between the control group and the scopolamine control group was calculated using Student's t-test. Further, a significant difference between the scopolamine control group and the NIPPLTQTPVVVPPFLQPE-administered groups was calculated using Dunnett's multiple comparison test after one-way analysis of variance.
Male mice (n=15 to 45) of the ddY strain (approximately 7-week old) were used, and they received food and water ad Iib. Test substances used were: 50 nmol/kg weight (100 μg/kg weight) of Asn-Ile-Pro-Pro-Leu-Thr-Gln-Thr-Pro-Val-Val-Val-Pro-Pro-Phe-Leu-Gln-Pro-Glu; 50 nmol/kg weight (120 μg/kg weight) of […]([…]); 50 nmol/kg weight (100 μg/kg weight) of Ile-Pro-Pro-Leu-Thr-Gln-Thr-Pro-Val-Val-Val-Pro-Pro-Phe-Leu-Gln-Pro-Glu (IPPLTQTPVVVPPFLQPE); 50 nmol/kg weight (100 μg/kg weight) of Asn-Ile-Pro-Pro-Leu-Thr-Gln-Thr-Pro-Val-Val-Val-Pro-Pro-Phe-Leu-Gln-Pro (NIPPLTQTPVVVPPFLQP) (SEQ ID NO: 18); and 50 nmol/kg weight (50 μg/kg weight) of Thr-Gln-Thr-Pro-Val-Val-Val-Pro-Pro-Phe (TQTPVVVPPF) (SEQ ID NO: 19). The test substances were administered to the mice once orally 60 minutes before the execution of a Y-shaped maze test for evaluation of spontaneous alternation behavior. Further, 30 minutes before the execution of the Y-shaped maze test, 1 mg/kg weight of scopolamine was subcutaneously administered on the backs of the mice in order to induce brain dysfunction (dysmnesia and/or cognitive impairment) in the mice. […]

[2] = tested on: scopolamine-induced amnesia; experiment: as above; conditions: once orally 60 min before test, scopolamine 1 mg/kg s.c., ddY mice
[3] = tested on: memory maintenance; experiment: novel object recognition test for evaluation of memory maintenance; conditions: Example 4, FIG. 4; 500 nmol/kg weight (1000 μg/kg weight), once orally 60 min before training trial; retention trial 48 hours later; ddY mice
Method: Male mice (n=14 to 15) of the ddY strain (approximately 7-week old) were used, and they received food and water ad lib. A test substance used was 500 nmol/kg weight (1000 μg/kg weight) of Asn-Ile-Pro-Pro-Leu-Thr-Gln-Thr-Pro-Val-Val-Val-Pro-Pro-Phe-Leu-Gln-Pro-Glu. The test substance was administered to the mice once orally 60 minutes before the execution of a novel object recognition test for evaluation of memory maintenance. In the novel object recognition test, a 30 cm x30 cm x30 cm box was used as an experimental device. For acclimation, each of the mice was placed in the experimental device with floor bedding for 5 minutes, and then allo the aminals to go around freely in the device. On the next day of the acclimation treatment, a training trial was performed. In the training trial, two among three kinds of objects were selected and disposed in the experimental device (the objects were arranged along the central line of the floor at positions 8 cm away from the walls on two sides, and the positions were designated as X1 and X2). […] In the training trial and the retention trial, the time (seconds) the mice spent exploring each object by approaching within 1 cm therefrom was measured (except the time when the mice were riding on the object). For each of the training trial and the retention trial, an exploration time ratio between the two objects was calculated. […]

[4] = Example 2, FIG. 2, 50 nmol/kg weight, scopolamine 1 mg/kg s.c., Dunnett's test vs scopolamine control
[5] = Example 6, FIG. 6, 500 nmol/kg weight, Student's t-test
[6] = Example 3, FIG. 3, 500 nmol/kg weight (1000 μg/kg weight), Dunnett's test

Sequence	prophylactic activity against amnesia (percentage of spontaneous alternation behavior) [1, 4]	prophylactic activity against amnesia (percentage of spontaneous alternation behavior) [2, 5]	other results
IPPLTQTPVVVPPFLQPE (Synthetic functional peptide) [Ile-Pro-Pro-Leu-Thr-Gln-Thr-Pro-Val-Val-Val-Pro-Pro-Phe-Leu-Gln-Pro-Glu]	had a prophylactic activity against amnesia	–	–
LTQTPVVVPPFLQPE (Synthetic functional peptide) [Leu-Thr-Gln-Thr-Pro-Val-Val-Val-Pro-Pro-Phe-Leu-Gln-Pro-Glu]	–	had a prophylactic activity against amnesia	–
NIPPLTQTPVVVPPFLQP (Synthetic comparative example) [Asn-Ile-Pro-Pro-Leu-Thr-Gln-Thr-Pro-Val-Val-Val-Pro-Pro-Phe-Leu-Gln-Pro]	did not show any prophylactic activity against amnesia	–	–
NIPPLTQTPVVVPPFLQPE (Synthetic functional peptide) [Asn-Ile-Pro-Pro-Leu-Thr-Gln-Thr-Pro-Val-Val-Val-Pro-Pro-Phe-Leu-Gln-Pro-Glu]	had a prophylactic activity against amnesia	–	prophylactic activity against amnesia (percentage of spontaneous alternation behavior) [2, 6]: had a prophylactic activity against amnesia; memory strengthening activity (exploration time ratio of novel object) [3]: had a memory strengthening activity; prophylactic activity against amnesia (percentage of spontaneous alternation behavior) ([1]; Example 1, FIG. 1, 0.05 nmol/kg weight to 500 nmol/kg weight (0.1 to 1000 μg/kg weight), scopolamine 1 mg/kg s.c. 30 min before, Dunnett's test): had a prophylactic activity against amnesia
NIPPLTQTPVVVPPFLQPEVM (Synthetic functional peptide)	had a prophylactic activity against amnesia	–	–
PLTQTPVVVPPFLQPE (Synthetic functional peptide) [Pro-Leu-Thr-Gln-Thr-Pro-Val-Val-Val-Pro-Pro-Phe-Leu-Gln-Pro-Glu]	–	had a prophylactic activity against amnesia	–
PPLTQTPVVVPPFLQPE (Synthetic functional peptide) [Pro-Pro-Leu-Thr-Gln-Thr-Pro-Val-Val-Val-Pro-Pro-Phe-Leu-Gln-Pro-Glu]	–	–	prophylactic activity against amnesia (percentage of spontaneous alternation behavior) [2, 6]: had a prophylactic activity against amnesia
PVVVPPFLQPE (Synthetic functional peptide) [Pro-Val-Val-Val-Pro-Pro-Phe-Leu-Gln-Pro-Glu]	–	had a prophylactic activity against amnesia	–
TQTPVVVPPF (Synthetic comparative example) [Thr-Gln-Thr-Pro-Val-Val-Val-Pro-Pro-Phe]	did not show any prophylactic activity against amnesia	–	–
TQTPVVVPPFLQPE (Synthetic functional peptide) [Thr-Gln-Thr-Pro-Val-Val-Val-Pro-Pro-Phe-Leu-Gln-Pro-Glu]	–	–	prophylactic activity against amnesia (percentage of spontaneous alternation behavior) ([2]; Example 5, FIG. 5, 50 nmol/kg weight (80 μg/kg weight), Student's t-test): had a prophylactic activity against amnesia
VVVPPFLQPE (Synthetic functional peptide) [Val-Val-Val-Pro-Pro-Phe-Leu-Gln-Pro-Glu]	–	had a prophylactic activity against amnesia	–
